# Results taken from US8404680B2, “N-[3-(5-amino-3,3a,7,7a-tetrahydro-1H-2,4-dioxa-6-aza-inden-7-yl)-phenyl]-amides as BACE1 and/or BACE2 inhibitors” (Hoffmann-La Roche Inc., priority 2011, dated 2013).
# Target: T1, BACE1 (Homo sapiens, UniProt P56817)
# T1 construct: Human HEK293 cells which are stably transfected with a vector expressing a cDNA of the human APP wt gene (APP695); endogenous in cells; host or cells: HEK293 (human), stably transfected with human APP695 wt
# Assay: Cellular Aβ-lowering assay
# Type: cell-based
# Settings: human HEK293 cells stably expressing human APP wt (APP695); Aβ40 in supernatant by ELISA after 18-20 hrs
# Procedure: Cellular Aβ-Lowering Assay:
# Human HEK293 cells which are stably transfected with a vector expressing a cDNA of the human APP wt gene (APP695) were used to assess the potency of the compounds in a cellular assay. The cells were seeded in 96-well microtiter plates in cell culture medium (Iscove, plus 10% (v/v) fetal bovine serum, glutamine, penicillin/streptomycin) to about 80% confluence and the compounds were added at a 10× concentration in 1/10 volume of medium without FCS containing 8% DMSO (final concentration of DMSO was kept at 0.8% v/v). After 18-20 hrs incubation at 37° C. and 5% CO2 in a humidified incubator the culture supernatant was harvested for the determination of Aβ40 concentrations. 96well ELISA plates (e.g., Nunc MaxiSorb) were coated with monoclonal antibody which specifically recognize the C-terminal end of Aβ40 (Brockhaus et al., NeuroReport 9, 1481-1486; 1998). After blocking of non-specific binding sites with e.g. 1% BSA and washing, the culture supernatants were added in suitable dilutions together with a horseradish peroxidase-coupled Aβ detection antibody (e.g., antibody 4G8, Senetek, Md. Heights, Mo.) and incubated for 5 to 7 hrs. Subsequently the wells of the microtiter plate were washed extensively with Tris-buffered saline containing 0.05% Tween 20 and the assay was developed with tetramethylbenzidine/H2O2 in citric acid buffer. After stopping the reaction with one volume 1 NH2SO4 the reaction was measured in an ELISA reader at 450 nm wavelength. The concentrations of Aβ in the culture supernatants were calculated from a standard curve obtained with known amounts of pure Aβ peptide.
# T1 sequence (P56817 46-501): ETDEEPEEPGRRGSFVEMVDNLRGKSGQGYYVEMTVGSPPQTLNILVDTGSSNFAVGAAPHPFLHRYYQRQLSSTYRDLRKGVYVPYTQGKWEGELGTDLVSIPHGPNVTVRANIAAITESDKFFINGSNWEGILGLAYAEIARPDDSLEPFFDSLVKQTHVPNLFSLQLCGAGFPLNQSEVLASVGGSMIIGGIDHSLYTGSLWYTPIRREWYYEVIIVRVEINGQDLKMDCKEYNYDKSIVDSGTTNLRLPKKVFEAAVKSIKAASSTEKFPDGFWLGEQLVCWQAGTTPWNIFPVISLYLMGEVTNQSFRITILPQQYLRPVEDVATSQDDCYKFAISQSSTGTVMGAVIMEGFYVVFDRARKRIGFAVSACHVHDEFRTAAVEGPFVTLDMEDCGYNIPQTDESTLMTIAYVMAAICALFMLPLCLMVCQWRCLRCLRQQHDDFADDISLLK
row,Structure (SMILES),IC50 [nM]
1,"N#Cc1ccc(C(=O)Nc2ccc(F)c([C@@]3(CF)N=C(N)O[C@@H]4COC[C@@H]43)c2)nc1 [Example 13, 5-Cyano-pyridine-2-carboxylic acid [3-((3aS,7S,7aS)-5-amino-7-fluoromethyl-3,3a,7,7a-tetrahydro-1H-2,4-dioxa-6-aza-inden-7-yl)-4-fluoro-phenyl]-amide]",1
2,"CC#CCOc1ccc(C(=O)Nc2ccc(F)c([C@@]3(C)N=C(N)O[C@@H]4COC[C@@H]43)c2)nc1 [Example 10, 5-But-2-ynyloxy-pyridine-2-carboxylic acid [3-((3aS,7S,7aS)-5-amino-7-methyl-3,3a,7,7a-tetrahydro-1H-2,4-dioxa-6-aza-inden-7-yl)-4-fluoro-phenyl]-amide]",0.1
3,"C[C@]1(c2cc(NC(=O)c3ccc(OCC(F)(F)C(F)F)cn3)ccc2F)N=C(N)O[C@@H]2COC[C@@H]21 [Example 11, 5-(2,2,3,3-Tetrafluoro-propoxy)-pyridine-2-carboxylic acid [3-((3aS,7S,7aS)-5-amino-7-methyl-3,3a,7,7a-tetrahydro-1H-2,4-dioxa-6-aza-inden-7-yl)-4-fluoro-phenyl]-amide]",5
4,"NC1=N[C@@](c2cc(NC(=O)c3ccc(Cl)cn3)ccc2F)(C(F)F)[C@H]2COC[C@H]2O1 [Example 16, 5-Chloro-pyridine-2-carboxylic acid [3-((3aS,7S,7aS)-5-amino-7-difluoromethyl-3,3a,7,7a-tetrahydro-1H-2,4-dioxa-6-aza-inden-7-yl)-4-fluoro-phenyl]-amide]",5.5
5,"C[C@]1(c2cc(NC(=O)c3ccc(C#N)cn3)ccc2F)N=C(N)O[C@]2(C(F)(F)F)COC[C@H]12 (relative stereo) [Example 19, N-(3-(rel-(4SR,4aSR,7aSR)-2-amino-4-methyl-7a-(trifluoromethyl)-4a,5,7,7a-tetrahydro-4H-furo[3,4-e][1,3]oxazin-4-yl)-4-fluorophenyl)-5-cyanopicolinamide]",9
6,"C[C@]1(c2cc(NC(=O)c3ncc(C#N)cc3Cl)ccc2F)N=C(N)O[C@@H]2COC[C@@H]21 [Example 12, N-(3-((4S,4aS,7aS)-2-amino-4-methyl-4a,5,7,7a-tetrahydro-4H-furo[3,4-e][1,3]oxazin-4-yl)-4-fluorophenyl)-3-chloro-5-cyanopicolinamide]",1
7,"C[C@]1(c2cc(NC(=O)c3ccc(OCC4CC4)cn3)ccc2F)N=C(N)O[C@@H]2COC[C@@H]21 [Example 9, 5-Cyclopropylmethoxy-pyridine-2-carboxylic acid [3-((3aS,7S,7aS)-5-amino-7-methyl-3,3a,7,7a-tetrahydro-1H-2,4-dioxa-6-aza-inden-7-yl)-4-fluoro-phenyl]-amide]",5
8,"CC#CCOc1cnc(C(=O)Nc2ccc(F)c([C@@]3(C)N=C(N)O[C@]4(C(F)(F)F)COC[C@H]34)c2)cn1 (relative stereo) [Example 20, N-(3-(rel-(4SR,4aSR,7aSR)-2-amino-4-methyl-7a-(trifluoromethyl)-4a,5,7,7a-tetrahydro-4H-furo[3,4-e][1,3]oxazin-4-yl)-4-fluorophenyl)-5-(but-2-ynyloxy)pyrazine-2-carboxamide]",7
9,"C[C@]1(c2cc(NC(=O)c3ccc(C#N)cn3)ccc2F)N=C(N)O[C@]2(C(F)(F)F)COC[C@H]12 (racemic) [Example 22, N-(3-((4SR,4aSR,7aSR)-2-amino-4-methyl-7a-(trifluoromethyl)-4a,5,7,7a-tetrahydro-4H-furo[3,4-e][1,3]oxazin-4-yl)-4-fluorophenyl)-5-cyanopicolinamide]",7
10,"NC1=N[C@](CF)(c2cc(NC(=O)c3ccc(Cl)cn3)ccc2F)[C@H]2COC[C@H]2O1 [Example 14, 5-Chloro-pyridine-2-carboxylic acid [3-((3aS,7S,7aS)-5-amino-7-fluoromethyl-3,3a,7,7a-tetrahydro-1H-2,4-dioxa-6-aza-inden-7-yl)-4-fluoro-phenyl]-amide]",1
